According to US5045548A, “Quinolyl methoxy compounds and their use as antiasthmatic agents” (Fujisawa Pharmaceutical Company, Ltd., priority 1987, dated 1991):

Tests used:
[1] = test system: Intimal Thickening of Rabbit Carotid Artery; assay: Antiatherosclerotic activity: cuff-induced intimal thickening of rabbit carotid artery; assay type: in vivo, rabbit (male Japanese white); conditions: i.m.; for Intimal thickening index: once a day, 3 weeks, mean ± SE (n = 8)
Description: Induction of Intimal Thickening of Rabbit Carotid Artery
Forty male Japanese white rabbits weighing about 2 kg were used for the test of the compound of Example 40. They were divided into 5 groups of 8 animals: one served as control, and the other 4 as drug dose groups. The rabbits were anesthetized with care not to injure the surrounding tissues. A polyetherylene cuff (1.5 cm long, 2.15 mm inner diameter, 3.25 mm outer diameter) was placed around the artery. The rabbits were maintained for 3 weeks on standard laboratory diet and water ad libitum. The compound of Example 40 and the vehicle (0.5%, w/v methyl cellulose in saline) were given intramuscularly once a day starting from the day of cuff-placement. At the end of the 3rd week, the rabbits were heparinized (500, i.v.), and the artery was removed, washed free of blood with saline, fixed by immersion in 10% formalin and divided into 8 cross-segments about 2 mm long. The segments were embedded in paraffin and cut into transverse sections. These sections were stained with orecin. About 70 transverse sections were prepared form each artery and used for the quantitation of the initimal thickening.
Quantitation of Intimal Thickening (Intimal Thickening Index)
The arterial sections were observed by light microscopy and the intimal thickening was scored as follows. 0=no thickening; 1=slight hyperplasia in the subendothelial space with intima media ratio of about 1/10; 2=several layers of cells in the subendothelial space with intima media ratio of about 1/5, or parts of the subendothelial space with more hyperplasia; 3=sever hyperplasia throughout the subendothelial space with intima media ratio of more than 1/3.

[2] = test system: CDE-induced pancreatitis in mice; assay: Effect on experimental pancreatitis in mice (CDE diet-induced, lethal); assay type: in vivo, mouse (female ICR); conditions: for % survival: orally two times a day for 4 days, N = 20, control 15
Description: Test III: Effect on experimental pancreatitis in mice
The effect of 5-lipoxygenase inhibitor, the compound of Example 40 was studied in a lethal form of pancreatitis induced by feeding mice an ehionine-supplemented choline-deficient diet (CDE diet).
Female ICR mice, aged 3 wk were used in this study. All mice were fed a regular laboratory diet before the experiments. The CDE diet was then substituted for 2 days, and after this period replaced by the regular diet for an additional 6 days.
The compound of Example 40 was administered orally two times a day for 4 days after the beginning of the CDE diet.

[3] = test system: SRS-A (Slow Reacting Substance of Anaphylaxis) synthesis in rat polymorpholeukocyte (PMN); assay: Inhibitory Activity of SRS-A synthesis in rat polymorpholeukocyte (PMN) using the calcium ionophore A23187 (i-LTC4 by radioimmunoassay); assay type: cell-based, rat (male Sprague-Dawley); conditions: Rattus norvegicus, 0.25 h, 10 μM A23187, 15 min, 37° C.
Procedure: Test I: Inhibitory Activity of SRS-A (Slow Reacting Substance of Anaphylaxis) synthesis in rat polymorpholeukocyte (PMN) of using the calcium ionophore Male Sprague-Dawley rats weighing 250-300 g were anesthetized with ether and each was injected intraperitoneally with 20 ml of 0.1% clycogen (from Oyster). After 20 hours the rats were sacrificed and PMN were recovered in rinse of the peritoneal cavity with 10 ml Dulbeccos PBS (components in g/L: CaCl2 0.1, KH2 PO4 0.2, MgCl2.6H2 O 0.1, NaCl 8.0, Na2 HPO4.7H2 O 2.16; pH7.4). These rinses were filtered through nylon wool filter and centrifuged for 5 min at 1000 xg. The pellet was suspended in Dulbeccos PBS and centrifuged for 5 min at 1000 xg. The pellet was resuspended in Dulbeccos PBS and adjusted the cell concentration to 10^7 cells/ml with Dulbeccos PBS. Samples were dissolved in ethanol and dispersed in Dulbeccos PBS to give a concentration of 10^-10 -10^-5 M Antibiotic A23187; calcium ionophor ([…] Diagnostics) (hereinafter referred to A23187) in DMSO(10mM) was diluted with Dulbeccos PBS to give the concentration of 1 mM. Aliquots of the cell suspension (1×10^7 cells/ml, 0.98 ml) were equilibrated for 30 min at 37° C. Solution of sample(10 μl) was added and incubated for 15 min at 37° C. before the addition of 10 μl of A23187 solution. Thus the final incubation volume of 1 ml contained approximately 1×10^7 cells, 10^-10 -10^-5 M samples and 10 μM A23187. Incubation with A23187 were continued for 15 min at 37° C. The reactions were terminated by setting the assay tubes in ice bath to chill as rapidly as possible to 4° C. The test tubes were centrifuged at 1500 xg for 5 min at 4° C. and decanted the supernatants into the tubes and kept cold prior to assaying. The concentration of i-LTC4 in the cell-free supernatants from the incubations were determined by specific radioimmunoassay. The mean values of i-LTC4 (these incubations were carried out in duplicate) of each sample were calculated and the effect of samples on the synthesis of the leukotrienes was presented as a percentage of the value in the absence of samples.

[4] = 0.1 mg/kg, P < 0.01 compared with vehicle control
[5] = 10 mg/kg, P < 0.01 compared with vehicle control

With CCCCC1(CCCC)CCc2c(OCc3ccc4ccccc4n3)cccc2C1O (single isomer, unassigned; (+)) [Example 40, (+)-2,2-dibutyl-5-(2-quinolylmethoxy)-1,2,3,4-tetrahydro-1-naphthol] the “Intimal thickening index, percentage versus the mean value of vehicle control” value ([1]; 0.01 mg/kg) was 90.1%, the Intimal thickening index ([1]; 0.01 mg/kg) was 1.27 ± 0.17 and the Intimal thickening index [1, 4] was 0.71 ± 0.16. The “Intimal thickening index, percentage versus the mean value of vehicle control” value [1, 4] was 50.4%, the “Intimal thickening index, percentage versus the mean value of vehicle control” value ([1]; 1.0 mg/kg) was 65.9% and the Intimal thickening index ([1]; 1.0 mg/kg) was 0.93 ± 0.31. For the same compound, the “inhibition of cuff-induced intimal thickening (in words)” value ([1]; 0.01-10 mg/kg) was “dose-dependently inhibited cuff-induced intimal thickening”, the “inhibitory activity on intimal thickening (in words)” value ([1]; 10 mg/kg) was “exerted significant inhibitory activity” and the Intimal thickening index [1, 5] was 0.60±0.21. For the same compound, the “Intimal thickening index, percentage versus the mean value of vehicle control” value [1, 5] was 42.5%, the “% survival” value ([2]; 10 mg/kg) was 10% and the “% survival” value ([2]; 32 mg/kg) was 35%. For the same compound, the “% survival” value ([2]; 100 mg/kg) was 85%, the “prevention of CDE-induced pancreatitis (in words)” value ([2]; orally, 10-100 mg/kg) was “prevented the CDE-induced pancreatitis in a dose-dependent manner” and the IC50 [3] was 6.5 nM.
